Experimental findings from patent US10098938B2, “Peptides and combination of peptides for use in immunotherapy against various cancers” (immatics biotechnologies GmbH, priority 2015, dated 2018) are described below.

The test system of one assay is HLA-A*24. The experiment in a line: MHC binding assay, UV-ligand exchange with β2m ELISA, HLA-A*24. Also noted: species or system human. The following applies: binding to HLA-A*24 ranged by peptide exchange yield. The source says: Candidate peptides for T cell based therapies according to the present invention were further tested for their MHC binding capacity (affinity). The individual peptide-MHC complexes were produced by UV-ligand exchange, where a UV-sensitive peptide is cleaved upon UV-irradiation, and exchanged with the peptide of interest as analyzed. Only peptide candidates that can effectively bind and stabilize the peptide-receptive MHC molecules prevent dissociation of the MHC complexes. To determine the yield of the exchange reaction, an ELISA was performed based on the detection of the light chain (β2m) of stabilized MHC complexes. The assay was performed as generally described in Rodenko et al. (Rodenko et al., 2006).
96 well MAXISorp plates (NUNC) were coated over night with 2 ug/ml streptavidin in PBS at room temperature, washed 4× and blocked for 1 h at 37° C. in 2% BSA containing blocking buffer. Refolded HLA-A*02:01/MLA-001 monomers served as standards, covering the range of 15-500 ng/ml. Peptide-MHC monomers of the UV-exchange reaction were diluted 100 fold in blocking buffer. Samples were incubated for 1 h at 37° C., washed four times, incubated with 2 ug/ml HRP conjugated anti-β2m for 1 h at 37° C., washed again and detected with TMB solution that is stopped with […]. Absorption was measured at 450 nm. Candidate peptides that show a high exchange yield (preferably higher than 50%, most preferred higher than 75%) are generally preferred for a generation and production of antibodies or fragments thereof, and/or T cell receptors or fragments thereof, as they show sufficient avidity to the MHC molecules and prevent dissociation of the MHC complexes.
On the technique in general: ELISA stands for enzyme-linked immunosorbent assay.

A further assay concerns CD8+ T cells. The experiment in a line: In vitro immunogenicity: T-cell priming with aAPCs loaded with peptide/MHC and anti-CD28, pMHC multimer readout. It is filed as cell-based, human. Conditions: in vitro immunogenicity of HLA class I peptides; for Wells positive [%]: pMHC multimer readout after T-cell priming; for Wells: CD8+ T cells of healthy donors, three stimulation cycles, multimer staining. The source says:
In order to obtain information regarding the immunogenicity of the TUMAPs of the present invention, the inventors performed investigations using an in vitro T-cell priming assay based on repeated stimulations of CD8+ T cells with artificial antigen presenting cells (aAPCs) loaded with peptide/MHC complexes and anti-CD28 antibody.
In order to perform in vitro stimulations by artificial antigen presenting cells loaded with peptide-MHC complex (pMHC) and anti-CD28 antibody, the inventors first isolated CD8+ T cells from fresh HLA-A*02 leukapheresis products via positive selection using CD8 microbeads (Miltenyi Biotec, Bergisch-Gladbach, Germany) of healthy donors obtained from the University clinics Mannheim, Germany, after informed consent.
PBMCs and isolated CD8+ lymphocytes were incubated in T-cell medium (TCM) until use consisting of RPMI-Glutamax (Invitrogen, Karlsruhe, Germany) supplemented with 10% heat inactivated human AB serum (PAN-Biotech, Aidenbach, Germany), 100 U/ml Penicillin/100 μg/ml Streptomycin (Cambrex, Cologne, Germany), 1 mM sodium pyruvate (CC Pro, Oberdorla, Germany), 20 μg/ml Gentamycin (Cambrex). 2.5 ng/ml IL7 (PromoCell, Heidelberg, Germany) and 10 U/ml IL-2 (Novartis Pharma, Nürnberg, Germany) were also added to the TCM at this step.
Generation of pMHC/anti-CD28 coated beads, T-cell stimulations and readout was performed in a highly defined in vitro system using four different pMHC molecules per stimulation condition and 8 different pMHC molecules per readout condition.
The purified co-stimulatory mouse IgG2a anti human CD28 Ab 9.3 (Jung et al., 1987) was chemically biotinylated using Sulfo-N-hydroxysuccinimidobiotin as recommended by the manufacturer (Perbio, Bonn, Germany). Beads used were 5.6 μm diameter streptavidin coated polystyrene particles (Bangs Laboratories, Illinois, USA).
pMHC used for positive and negative control stimulations were A*0201/MLA-001 (peptide […] (SEQ ID NO. 303) from modified Melan-A/MART-1) and A*0201/DDX5-001 ([…] from DDX5, SEQ ID NO. 304), respectively.
800.000 beads/200 μl were coated in 96-well plates in the presence of 4×12.5 ng different biotin-pMHC, washed and 600 ng biotin anti-CD28 were added subsequently in a volume of 200 μl. Stimulations were initiated in 96-well plates by co-incubating […] CD8+ T cells with 2×10^5 washed coated beads in 200 μl TCM supplemented with 5 ng/ml IL-12 (PromoCell) for 3 days at 37° C. Half of the medium was then exchanged by fresh TCM supplemented with 80 U/ml IL-2 and incubating was continued for 4 days at 37° C. This stimulation cycle was performed for a total of three times. For the pMHC multimer readout using 8 different pMHC molecules per condition, a two-dimensional combinatorial coding approach was used as previously described (Andersen et al., 2012) with minor modifications encompassing coupling to 5 different fluorochromes. Finally, multimeric analyses were performed by staining the cells with Live/dead near IR dye (Invitrogen, Karlsruhe, Germany), CD8-FITC antibody clone SK1 (BD, Heidelberg, Germany) and fluorescent pMHC multimers. For analysis, a BD LSRII SORP cytometer equipped with appropriate lasers and filters was used. Peptide specific cells were calculated as percentage of total CD8+ cells. Evaluation of multimeric analysis was done using the FlowJo software (Tree Star, Oregon, USA). In vitro priming of specific multimer+ CD8+ lymphocytes was detected by comparing to negative control stimulations.

On to “202 (VYWDSAGAAHF; listed as Homo sapiens) [compound 202]”, for which, in the assay on HLA-A*24, the Peptide exchange result is “++++ (> = 75% = ++++)”.

Take “23 (SLFSDEFKV; listed as Homo sapiens) [compound 23]”: the “Wells positive [%]” value with CD8+ T cells is on record as “++++ (> = 70% = ++++)”.

With “179 (MYDSYWRQF; listed as Homo sapiens) [compound 179]”, in the assay on HLA-A*24, the Peptide exchange entry is recorded as “++++ (> = 75% = ++++)”.

Regarding “29 (YLLDPSITL; listed as Homo sapiens) [compound 29]”, the “Wells positive [%]” value in the assay with CD8+ T cells was “+ (<20% = +)”.

For the substance “277 (VYQGHTALL; listed as Homo sapiens) [compound 277]”, the Peptide exchange entry with HLA-A*24 is “++++ (> = 75% = ++++)”.

Regarding “267 (KYMVYPQTF; listed as Homo sapiens) [compound 267]”, the Peptide exchange entry in the assay with HLA-A*24 is “++++ (> = 75% = ++++)”.

With “228 (KYTSWYVAL; listed as Homo sapiens) [compound 228]”, the Peptide exchange result in the assay on HLA-A*24 is recorded as “++++ (> = 75% = ++++)”.

Turning to “187 (TYLRDQHFL; listed as Homo sapiens) [compound 187]”, the Peptide exchange result with HLA-A*24 is recorded as “++++ (> = 75% = ++++)”.

In the case of “272 (QYLQDAYSF; listed as Homo sapiens) [compound 272]”, the Peptide exchange entry with HLA-A*24 is given as “++++ (> = 75% = ++++)”.

As to “181 (LYLDIINLF; listed as Homo sapiens) [compound 181]”, the Peptide exchange result in the assay with HLA-A*24 was “++++ (> = 75% = ++++)”.

For “210 (IYTMIYRNL; listed as Homo sapiens) [compound 210]”, in the assay with HLA-A*24, the Peptide exchange result is “++++ (> = 75% = ++++)”.

In the case of “282 (KFVDSTFYL; listed as Homo sapiens) [compound 282]”, the Peptide exchange entry in the assay with HLA-A*24 is given as “++++ (> = 75% = ++++)”.

In the case of “269 (YFIDSTNLKTHF; listed as Homo sapiens) [compound 269]”, the “Wells positive [%]” value in the assay with CD8+ T cells is reported as “+ (<20% = +)”.

Take “168 (KYQDILETI; listed as Homo sapiens) [compound 168]”: in the assay with HLA-A*24, the Peptide exchange result is “++++ (> = 75% = ++++)”.

Take “227 (IFLDYEAGTLSF; listed as Homo sapiens) [compound 227]”: the Peptide exchange entry in the assay with HLA-A*24 was “++++ (> = 75% = ++++)”.

As for “230 (KLQNIMMLL; listed as Homo sapiens) [compound 230]”, the “Wells positive [%]” value in the assay with CD8+ T cells is “++++ (> = 70% = ++++)”.

For “289 (KYPVEWAKF; listed as Homo sapiens) [compound 289]”, in the assay with HLA-A*24, the Peptide exchange result is on record as “++++ (> = 75% = ++++)”.

Consider “18 (ILLDLTDNRL; listed as Homo sapiens) [compound 18]”, for which the “Wells positive [%]” value in the assay with CD8+ T cells is on record as “+ (<20% = +)”.

On to “184 (VFQNFPLLF; listed as Homo sapiens) [compound 184]”, for which, in the assay with HLA-A*24, the Peptide exchange entry is reported as “++++ (> = 75% = ++++)”.

On to “291 (KLDETGNSL; listed as Homo sapiens) [compound 291]”, for which, in the assay with CD8+ T cells, the Wells result was “+ (<20% = +)”.

Take “5 (GIVAHIQEV; listed as Homo sapiens) [compound 5]”: in the assay with CD8+ T cells, the “Wells positive [%]” value is given as “+ (<20% = +)”.

Take “195 (TYSVSFPMF; listed as Homo sapiens) [compound 195]”: the Peptide exchange entry in the assay on HLA-A*24 was “++++ (> = 75% = ++++)”.

Take “285 (HYPPVQVLF; listed as Homo sapiens) [compound 285]”: in the assay on CD8+ T cells, the “Wells positive [%]” value is listed as “+ (<20% = +)”.

For the substance “296 (TYVDSSHTI; listed as Homo sapiens) [compound 296]”, the Wells result with CD8+ T cells is given as “+ (<20% = +)”.

“292 (GMMTAILGV; listed as Homo sapiens) [compound 292]”: the Wells entry in the assay with CD8+ T cells was “+ (<20% = +)”.

“300 (AYVLRLETL; listed as Homo sapiens) [compound 300]”: the Wells result with CD8+ T cells is “+ (<20% = +)”.

Consider “298 (RYLEGTSCI; listed as Homo sapiens) [compound 298]”, for which the Wells result in the assay on CD8+ T cells is “+ (<20% = +)”.

“197 (EYSLFPGQVVI; listed as Homo sapiens) [compound 197]”: the “Wells positive [%]” value with CD8+ T cells is recorded as “+ (<20% = +)”.

“217 (FFPPTRQMGLLF; listed as Homo sapiens) [compound 217]”: the Peptide exchange entry in the assay with HLA-A*24 is “++++ (> = 75% = ++++)”.

For the substance “166 (YYVESGKLF; listed as Homo sapiens) [compound 166]”, the Peptide exchange result with HLA-A*24 is on record as “++++ (> = 75% = ++++)”.

Regarding “276 (VYGFQWRHF; listed as Homo sapiens) [compound 276]”, the Peptide exchange result in the assay with HLA-A*24 is “++++ (> = 75% = ++++)”.

On to “193 (RFHPTPLLL; listed as Homo sapiens) [compound 193]”, for which the Peptide exchange result with HLA-A*24 was “++++ (> = 75% = ++++)”.

As to “278 (RYISDQLFTNF; listed as Homo sapiens) [compound 278]”, the Peptide exchange entry in the assay with HLA-A*24 is on record as “++++ (> = 75% = ++++)”.

As to “35 (FLLPFSTVYL; listed as Homo sapiens) [compound 35]”, in the assay on CD8+ T cells, the “Wells positive [%]” value was “+ (<20% = +)”.

“177 (VYPWLGALL; listed as Homo sapiens) [compound 177]”: the Peptide exchange entry in the assay with HLA-A*24 was “++++ (> = 75% = ++++)”.

As for “216 (QYSSVFKSL; listed as Homo sapiens) [compound 216]”, in the assay on HLA-A*24, the Peptide exchange entry is listed as “++++ (> = 75% = ++++)”.

As for “173 (IYSWILDHF; listed as Homo sapiens) [compound 173]”, the Peptide exchange result with HLA-A*24 is recorded as “++++ (> = 75% = ++++)”.

On to “274 (AYLHSHALI; listed as Homo sapiens) [compound 274]”, for which, in the assay with HLA-A*24, the Peptide exchange result is “++++ (> = 75% = ++++)”.

For the substance “161 (IYLVSIPEL; listed as Homo sapiens) [compound 161]”, in the assay on HLA-A*24, the Peptide exchange result is reported as “++++ (> = 75% = ++++)”.

As to “280 (RYPDNLKHLYL; listed as Homo sapiens) [compound 280]”, the Peptide exchange entry in the assay with HLA-A*24 is “++++ (> = 75% = ++++)”.

On to “160 (VYTLDIPVL; listed as Homo sapiens) [compound 160]”, for which, in the assay with HLA-A*24, the Peptide exchange result is given as “++++ (> = 75% = ++++)”.

Take “186 (IFPQFLYQF; listed as Homo sapiens) [compound 186]”: the Peptide exchange result in the assay with HLA-A*24 is “++++ (> = 75% = ++++)”.

On to “175 (YYEVHKELF; listed as Homo sapiens) [compound 175]”, for which the Peptide exchange entry with HLA-A*24 is “++++ (> = 75% = ++++)”.

For the substance “271 (LYHDIFSRL; listed as Homo sapiens) [compound 271]”, the Peptide exchange result in the assay with HLA-A*24 was “++++ (> = 75% = ++++)”.

For “211 (YYLEVGKTLI; listed as Homo sapiens) [compound 211]”, in the assay with HLA-A*24, the Peptide exchange result is listed as “++++ (> = 75% = ++++)”.

As to “172 (TYTTVPRVAF; listed as Homo sapiens) [compound 172]”, the Peptide exchange result in the assay on HLA-A*24 is listed as “++++ (> = 75% = ++++)”.

On to “192 (SYALLTYMI; listed as Homo sapiens) [compound 192]”, for which, in the assay with HLA-A*24, the Peptide exchange result is “++++ (> = 75% = ++++)”.

On to “194 (EFGSLHLEFL; listed as Homo sapiens) [compound 194]”, for which the Peptide exchange result in the assay on HLA-A*24 is recorded as “+ (<20% = +)”.
